# Measured values from EP0056152B1, “Process for the after-treatment of linen” (Henkel Kommanditgesellschaft auf Aktien, priority 1981, dated 1982).
# Like-named read-outs stand apart in the source and are kept apart here.
# Experiments:
# Experiment in all cases: Agar plate test with treated textile pieces (inhibition zone)
# Type in all cases: cell-based
# [1] = tested on: Trichophyton mentagrophytes; conditions: 30°C; for zone of inhibition at 1000 µg/mL: azole 1 g/l in liquor with 3 g/l fabric softener; for zone of inhibition at 100 µg/mL: azole 0,1 g/l in liquor with 3 g/l fabric softener; for zone of inhibition at 200 µg/mL: azole 0,2 g/l in liquor with 3 g/l fabric softener
# Experimental: (§1) Zur Prüfung der antimikrobiellen Wirksamkeit wurde die erfindungsgemäße Ausrüstung der Textilien wie folgt vorgenommen: • 2 x 2 cm große Textilstücke aus Baumwollköper (BW), Wolle (WO) und Nylon (NY) wurden in einer Behandlungsflotte von 20°C 10 Minuten lang bewegt und anschließend bei Raumtemperatur getrocknet. Der Behandlungsflotte waren verschiedene Azolverbindungen in unterschiedlicher Konzentration (s. Tabelle) und 3 g pro 1 Waschflotte eines handelsüblichen Wäscheweichspülmittels mit einem Gehalt an 5 Gew.-% Dimethyl-ditalgalkyl-ammoniumchlorid als textilweichmachender quartärer Ammoniumverbindung zugesetzt. Die Textilproben wurden auf mit unterschiedlichen Testkeimen beimpfte Agarplatten aufgelegt, bis zum Eintritt eines vollen Wachstums bei 30°C bebrütet und dann die antimikrobiellen Effekte abgelesen. Dabei bedeuten: • + = volles Wachstum • 0 = kein Hemmhof, kein Wachstum auf den Läppchen • Zahl = Hemmhof in mm um das Gewebe • (Zahl) = Größe des Hemmhofes mit diffuser Begrenzung in mm.
# Zum Vergleich wurde die antimikrobielle Wirkung eines azolverbindungsfreien Wäschenachbehandlungsmittels geprüft. Die Ergebnisse sind in der folgenden Tabelle aufgeführt:
# (§2) In einer weiteren Versuchsreihe wurden andere Azolverbindungen bei einer Anwendungskonzentration von 1 g/I Behandlungsflotte gemeinsam mit dem Wäschebehandlungsmittel der Beispiele 1 bis 7 (Konzentration 3 g/I Behandlungsflotte) eingesetzt. Auch hier wurde ein Vergleichsversuch ohne Azolverbindung durchgeführt.
# Epidermophyton floccosum = conditions: azole 1 g/l in liquor with 3 g/l fabric softener, 30°C
# Experimental: as §1, §2
# Microsporum gypseum = conditions: Nannizzia gypsea, 30°C, read-out: Hemmhof in mm um das Gewebe; for zone of inhibition at 100 µg/mL: azole 0,1 g/l in liquor with 3 g/l fabric softener; for zone of inhibition at 200 µg/mL: azole 0,2 g/l in liquor with 3 g/l fabric softener
# Experimental: as §1
# (§3) Zum Vergleich wurde die antimikrobielle Wirkung eines azolverbindungsfreien Wäschenachbehandlungsmittels geprüft. Die Ergebnisse sind in der folgenden Tabelle aufgeführt: […]
# Trichophyton rubrum = conditions: 30°C, read-out: Hemmhof in mm um das Gewebe; for zone of inhibition at 100 µg/mL: azole 0,1 g/l in liquor with 3 g/l fabric softener; for zone of inhibition at 200 µg/mL: azole 0,2 g/l in liquor with 3 g/l fabric softener
# Experimental: as §1, §3
# [2] = BW (Baumwollköper), read-out: Hemmhof in mm um das Gewebe
# [3] = NY (Nylon), read-out: Hemmhof in mm um das Gewebe
# [4] = WO (Wolle), read-out: Hemmhof in mm um das Gewebe
# [5] = value in brackets, BW (Baumwollköper), read-out: Größe des Hemmhofes mit diffuser Begrenzung in mm
# [6] = value in brackets, NY (Nylon), read-out: Größe des Hemmhofes mit diffuser Begrenzung in mm
# [7] = value in brackets, WO (Wolle), read-out: Größe des Hemmhofes mit diffuser Begrenzung in mm
Structure (SMILES),"zone of inhibition at 1000 µg/mL [1, 2] [mm]","zone of inhibition at 1000 µg/mL [1, 3] [mm]","zone of inhibition at 1000 µg/mL [1, 4] [mm]","zone of inhibition at 1000 µg/mL [1, 5] [mm]","zone of inhibition at 1000 µg/mL [1, 7] [mm]",zone of inhibition at 1000 µg/mL (Epidermophyton floccosum; [2]) [mm],zone of inhibition at 1000 µg/mL (Epidermophyton floccosum; [4]) [mm],zone of inhibition at 1000 µg/mL (Epidermophyton floccosum; [6]) [mm],zone of inhibition at 100 µg/mL (Microsporum gypseum; BW (Baumwollköper)) [mm],zone of inhibition at 200 µg/mL (Microsporum gypseum; BW (Baumwollköper)) [mm],zone of inhibition at 100 µg/mL (Microsporum gypseum; NY (Nylon)) [mm],zone of inhibition at 200 µg/mL (Microsporum gypseum; NY (Nylon)) [mm],zone of inhibition at 100 µg/mL (Microsporum gypseum; WO (Wolle)) [mm],zone of inhibition at 200 µg/mL (Microsporum gypseum; WO (Wolle)) [mm],zone of inhibition at 100 µg/mL (Trichophyton rubrum; BW (Baumwollköper)) [mm],zone of inhibition at 200 µg/mL (Trichophyton rubrum; BW (Baumwollköper)) [mm],zone of inhibition at 100 µg/mL (Trichophyton rubrum; NY (Nylon)) [mm],zone of inhibition at 200 µg/mL (Trichophyton rubrum; NY (Nylon)) [mm],zone of inhibition at 100 µg/mL (Trichophyton rubrum; WO (Wolle)) [mm],zone of inhibition at 200 µg/mL (Trichophyton rubrum; WO (Wolle)) [mm],further results
C#CC(c1ccccc1)(c1ccccc1)n1ccnc1 [compound 001],15,9,17,20,20,21,21,12,–,–,–,–,–,–,–,–,–,–,–,–,"zone of inhibition at 1000 µg/mL [1, 6]: 12 mm; zone of inhibition at 1000 µg/mL (Epidermophyton floccosum; [3]): 7 mm"
CC(C)(C)C(=O)C(Oc1ccc(Cl)cc1)n1ccnc1 (centres unmarked) [compound 003],5,0.5,9,10,16,3,10,0.5,–,–,–,–,–,–,–,–,–,–,–,–,zone of inhibition at 1000 µg/mL (Epidermophyton floccosum; [5]): 9 mm; zone of inhibition at 1000 µg/mL (Epidermophyton floccosum; [7]): 17 mm
O=[N+]([O-])CC(c1c(Cl)cccc1Cl)n1cnc(Cl)n1 (centres unmarked) [compound 046],–,–,–,–,–,–,–,–,14,16,8,10,8,10,9,12,4,7,13,7,"zone of inhibition at 100 µg/mL [1, 2]: 7 mm; zone of inhibition at 200 µg/mL [1, 2]: 13 mm; zone of inhibition at 100 µg/mL [1, 3]: 5 mm; zone of inhibition at 200 µg/mL [1, 3]: 10 mm; zone of inhibition at 100 µg/mL [1, 4]: 13 mm; zone of inhibition at 200 µg/mL [1, 4]: 13 mm"
CC(C)(C)C(c1ccccc1)(c1ccccc1)n1ccnc1 [compound 065],–,–,–,–,–,–,–,–,26,28,14,25,21,25,25,29,18,23,23,28,"zone of inhibition at 100 µg/mL [1, 2]: 26 mm; zone of inhibition at 200 µg/mL [1, 2]: 28 mm; zone of inhibition at 100 µg/mL [1, 3]: 25 mm; zone of inhibition at 200 µg/mL [1, 3]: 26 mm; zone of inhibition at 100 µg/mL [1, 4]: 25 mm; zone of inhibition at 200 µg/mL [1, 4]: 28 mm"
O=[N+]([O-])CC(c1c(Cl)cccc1Cl)n1cncn1 (centres unmarked) [compound 045],–,–,–,–,–,–,–,–,10,20,7,14,10,12,12,25,7,7,10,18,"zone of inhibition at 100 µg/mL [1, 2]: 11 mm; zone of inhibition at 200 µg/mL [1, 2]: 16 mm; zone of inhibition at 100 µg/mL [1, 3]: 8 mm; zone of inhibition at 200 µg/mL [1, 3]: 12 mm; zone of inhibition at 100 µg/mL [1, 4]: 8 mm; zone of inhibition at 200 µg/mL [1, 4]: 11 mm"
Cc1ccccc1C1(n2ccnc2)c2ccccc2-c2ccccc21 [compound 009],7,10,9,10,14,10,11,10,–,–,–,–,–,–,–,–,–,–,–,–,"zone of inhibition at 1000 µg/mL [1, 6]: 14 mm; zone of inhibition at 1000 µg/mL (Epidermophyton floccosum; [3]): 5 mm; zone of inhibition at 1000 µg/mL (Epidermophyton floccosum; [5]): 13 mm; zone of inhibition at 1000 µg/mL (Epidermophyton floccosum; [7]): 17 mm"
